Test results reported in patent publication US10259856B2, “Protease stabilized acylated insulin analogues” (priority 2008, dated 2019).

Columns and labels:
[1] = Hydrophobicity by reverse phase HPLC under isocratic conditions; format: physicochemical; settings: isocratic RP-HPLC, pH 7.3; human insulin as reference (k'rel = 1)
Method: The void time of the HPLC system, t0, is determined by injecting 5 μl of 0.1 mM NaNO3. Running conditions:
Column: Lichrosorb RP-C18, 5 μm, 4×250 mm
Buffer A: 0.1 M natrium phosphate pH 7.3, 10 vol % CH3CN

[2] = target: T1, human insulin receptor (IR-A) (Homo sapiens, UniProt P06213); experiment: Insulin receptor affinity, SPA antibody capture assay (0% HSA); format: binding; settings: affinity relative to human insulin
Method: (§1) The affinity of the acylated insulin analogues of this invention for the human insulin receptor is determined by a SPA assay (Scintillation Proximity Assay) microtiterplate antibody capture assay. […] Reagent mix for a single Packard Optiplate (Packard No. 6005190) is composed of 2.4 μl of a 1:5000 diluted purified recombinant human insulin receptor (either with or without exon 11), an amount of a stock solution of A14Tyr[^125I]-human insulin corresponding to 5000 cpm per 100 μl of reagent mix, 12 μl of a 1:1000 dilution of F12 antibody, 3 ml of SPA-beads and binding buffer to a total of 12 ml. A total of 100 μl reagent mix is then added to each well in the Packard Optiplate and a dilution series of the insulin derivative is made in the Optiplate from appropriate samples. The samples are then incubated for 16 hours while gently shaken. The phases are the then separated by centrifugation for 1 min and the plates counted in a Topcounter. The binding data were fitted using the nonlinear regression algorithm in the GraphPad Prism 2.01 (GraphPad Software, San Diego, Calif.) and affinities are expressed relative (in percentage (%)) to the affinity of human insulin.

[3] = target: T1, human insulin receptor (IR-A); experiment: Insulin receptor affinity, SPA assay with binding buffer containing 4.5% HSA; settings: 4.5% HSA in binding buffer; affinity relative to human insulin
Method: as §1

T1 sequence (P06213 28-746 isoform P06213-2 limits assumed): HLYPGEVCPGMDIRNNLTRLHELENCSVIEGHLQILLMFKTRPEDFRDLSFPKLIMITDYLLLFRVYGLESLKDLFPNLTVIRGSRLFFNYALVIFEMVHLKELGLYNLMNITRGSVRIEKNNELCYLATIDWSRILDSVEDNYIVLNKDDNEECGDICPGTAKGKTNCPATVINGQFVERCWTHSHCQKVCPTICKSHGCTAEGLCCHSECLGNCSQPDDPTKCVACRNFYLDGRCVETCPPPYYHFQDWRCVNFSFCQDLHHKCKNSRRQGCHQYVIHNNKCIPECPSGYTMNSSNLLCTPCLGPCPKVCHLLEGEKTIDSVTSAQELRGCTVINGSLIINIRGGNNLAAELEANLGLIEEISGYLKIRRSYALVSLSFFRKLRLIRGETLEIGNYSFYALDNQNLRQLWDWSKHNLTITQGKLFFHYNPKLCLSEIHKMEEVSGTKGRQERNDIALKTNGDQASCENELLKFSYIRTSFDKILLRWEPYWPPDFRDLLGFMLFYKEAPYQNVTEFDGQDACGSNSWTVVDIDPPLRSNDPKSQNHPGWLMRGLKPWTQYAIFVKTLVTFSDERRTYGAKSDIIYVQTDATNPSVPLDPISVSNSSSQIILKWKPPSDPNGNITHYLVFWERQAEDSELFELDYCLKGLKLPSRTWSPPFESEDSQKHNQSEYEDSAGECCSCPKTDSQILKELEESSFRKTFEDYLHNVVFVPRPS
T1 sequence (P06213 763-1382 partner limits assumed): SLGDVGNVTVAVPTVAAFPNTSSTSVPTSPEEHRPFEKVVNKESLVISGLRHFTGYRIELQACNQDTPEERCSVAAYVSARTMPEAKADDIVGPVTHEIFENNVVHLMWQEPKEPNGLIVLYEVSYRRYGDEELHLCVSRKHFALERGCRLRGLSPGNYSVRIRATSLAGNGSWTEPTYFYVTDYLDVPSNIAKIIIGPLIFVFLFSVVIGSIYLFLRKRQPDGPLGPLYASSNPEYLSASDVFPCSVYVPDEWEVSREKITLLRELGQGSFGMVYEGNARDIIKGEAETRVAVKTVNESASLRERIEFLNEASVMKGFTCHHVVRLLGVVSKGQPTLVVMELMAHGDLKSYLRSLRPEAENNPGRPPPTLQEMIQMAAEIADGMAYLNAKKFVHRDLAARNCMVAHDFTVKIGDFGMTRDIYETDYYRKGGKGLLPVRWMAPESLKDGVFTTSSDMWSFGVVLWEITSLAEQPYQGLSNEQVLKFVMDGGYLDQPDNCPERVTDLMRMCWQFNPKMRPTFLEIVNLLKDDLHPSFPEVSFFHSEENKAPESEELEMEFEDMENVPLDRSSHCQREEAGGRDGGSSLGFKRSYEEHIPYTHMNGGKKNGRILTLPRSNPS

| Substance | Relative hydrophobicity, k'relderiv [1] | Relative IR-A affinity (@ 0% HSA) (%) [2] | Relative IR-A affinity (@ 4.5% HSA) (%) [3] |
| --- | --- | --- | --- |
| A14E, B25H, B29K(N^εMyristyl), desB30 Human Insulin [Example 10] | 14.60 | 9.5% |  |
| A14E, B25H, B29K(N^εoctadecandioyl-γGlu-PEG7), desB30 Human Insulin [Example 15] | .43 | 1.9% |  |
| A14E, B25H, B29K(N^εeicosanedioyl-γGlu-(3-(2-{2-[2-(2-aminoethoxy)ethoxy]ethoxy}ethoxy)propionyl-γGlu), desB30 Human Insulin [Example 17] | .57 | .9% |  |
| A14E, B25H, B29K(N^εOctadecanedioyl-γGlu-Abu-Abu-Abu-Abu), desB30 Human Insulin [Example 41] |  | 1.6% | .31% |
| A14E, B25H, B29K(N^εEicosanedioyl-Aoc), desB30 Human Insulin [Example 53] |  | 2.3% | 0.03% |
| A14E, B25H, B29K(N^ε3-Carboxy-5-octadecanedioylaminobenzoyl), desB30 Human Insulin [Example 4] | .48 | 3.4% |  |
| A14E, B25H, B29K(N^ε4-([4-({19-Carboxynonadecanoylamino}methyl)trans-cyclohexane-carbonyl-]-γGlu-γGlu), desB30 Human Insulin [Example 12] | .94 | 1.7% |  |
| A14E, B25H, B29K(N^ε (N-Octadecandioyl-N-carboxymethyl)-beta-alanyl), desB30 Human Insulin [Example 6] |  | 2.6% | .04% |
| A14E, B25H, B29K(N^ε(5-Eicosanedioylaminoisophthalic acid)), desB30 Human Insulin [Example 47] |  | 1.2% | 0.10% |
| A14E, B25H, B29K(N^ε4-([4-({19-Carboxynonadecanoylamino}methyl)trans-cyclohexanecarbonyl]-γGlu), desB30 Human Insulin [Example 7] | 2.78 | 2.1% |  |
| A14E, B25H, B29K(N^ε—N-octadecandioyl-N-(2-carboxyethyl)glycyl), desB30 Human Insulin [Example 5] | .23 | 2.5% |  |
